In patent publication US9169262B2, “Crystalline salts of Asenapine with organic di-acids and tri-acids” (SANDOZ AG, priority 2011, dated 2015):
Where a name gives a salt, the structure may show the parent alone.

Key:
[1] = Water uptake / hygroscopicity by dynamic vapor sorption; assay type: physicochemical; conditions: for hygroscopic nature: dynamic vapor sorption; for water uptake (dynamic vapor sorption): up to 95% rel. humidity, citrate: most uptake above 80% relative humidity
Excerpt: The hygroscopic nature of the citrate salt was investigated by dynamic vapor sorption.

[2] = Polymorphic stability: suspension equilibration in water, PXRD; assay type: physicochemical; conditions: 25° C., 600 rpm, two days
[3] = Polymorphic stability: stirring in acetonitrile or organic solvent mixture, PXRD; conditions: for polymorph conversion in acetonitrile (PXRD): suspension in acetonitrile, room temperature, five days; for polymorph conversion in acetonitrile-acetone 1:1 (PXRD): suspension stirred at room/ambient temperature, four days
Method: The stability test is carried out by stirring the sample salt at 600 rpm in an amount of approximately 0.1 g/ml acetonitrile and optionally water as defined above. After 96 hours of stirring, the salt is removed by filtration and is dried and then subjected to X-ray powder diffraction analysis.

[4] = Solubility of Asenapine maleate in saturated solution (literature, Funke et al.); assay type: physicochemical; conditions: saturated aqueous solution, water, thermodynamic from solid; maleate solubility at 23° C., pH=4.4, translated into free base
Excerpt: Certain crystalline addition salts of Asenapine, for instance a fumarate (EP 0569096), salts with sulfonic acids (WO98/54186), and a pamoate or hemipamoate salt (EP569096), are described in the literature. The pamoate salt is disclosed to be amorphous and the hemipamoate salt is a mixture of amorphous and crystalline phase, wherein the palmitate is described as oil. The marketed form is the maleate salt, which is disclosed to exist in polymorphic forms (WO 2006/106135). The known Asenapine salts have a low solubility in water.

[5] = 23° C., pH=4.4; cited from earlier work
[6] = listed as Asenapine citrate of the invention

Row | Structure (SMILES) | hygroscopic nature [1] | water uptake (dynamic vapor sorption) [1] | polymorph conversion in water suspension (PXRD) [2] | polymorph conversion in water suspension (PXRD) [2, 6] | polymorph conversion in acetonitrile (PXRD) [3] | polymorph conversion in acetonitrile (PXRD) [3, 6] | polymorph conversion in water suspension (PXRD) ([2]; listed as crystalline malonate of the invention) | polymorph conversion in acetonitrile-acetone 1:1 (PXRD) [3] | polymorph conversion in acetonitrile-acetone 1:1 (PXRD) ([3]; listed as crystalline Asenapine malonate of the invention) | solubility [4] [µg/mL] | concentration of saturated solution [5] [µg/mL]
1 | CN1C[C@H]2c3ccccc3Oc3ccc(Cl)cc3[C@@H]2C1.O=C(O)CC(O)(CC(=O)O)C(=O)O [crystalline Asenapine citrate form I] | not or only very slightly hygroscopic | about 1.5% | no phase transformation was observed | does not change its polymorphic form | no phase transformation was observed | does not change its polymorphic form |  |  |  |  | 
2 | CN1CC2c3ccccc3Oc3ccc(Cl)cc3C2C1.O=C(O)CC(=O)O (centres unmarked) [crystalline Asenapine malonate form I] | completely non-hygroscopic | less than 0.2% | no phase transformation was observed |  |  |  | no polymorph conversion was observed | no phase transformation was observed | No polymorph conversion |  | 
3 | CN1CC2c3ccccc3Oc3ccc(Cl)cc3C2C1 (centres unmarked) [maleate salt of Asenapine] |  |  |  |  |  |  |  |  |  | ~4100 | 5800
